Data from ChEMBL document CHEMBL1201861, “Genomics of Drug Sensitity in Cancer screening data, Wellcome Trust Sanger Institute”.

What was measured:
[1] = tested on: BC-3; assay: cells; type: functional, cell-based; conditions: Homo sapiens;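 further: cell viability assay measuring growth inhibition of human BC-3 cells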
Description: SANGER: Inhibition of human BC-3 cell growth in a cell viability assay.

[2] = tested on: COR-L23; assay: cells; type: functional, cell-based; conditions: Homo sapiens;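 further: cell viability assay measuring how strongly compounds suppress growth of COR-L23 cells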
Description: SANGER: Inhibition of human COR-L23 cell growth in a cell viability assay.

[3] = tested on: GCT; assay: cells; type: functional, cell-based; conditions: Homo sapiens;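 further: GCT cell line proliferation inhibition, read out with a cell viability assay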
Description: SANGER: Inhibition of human GCT cell growth in a cell viability assay.

[4] = tested on: MEL-JUSO; assay: cells; type: functional, cell-based; conditions: Homo sapiens;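 further: growth inhibition of human MEL-JUSO cells, read out with a cell viability assay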
Description: SANGER: Inhibition of human MEL-JUSO cell growth in a cell viability assay.

[5] = tested on: SNU-387; assay: cells; type: functional, cell-based; conditions: Homo sapiens
Description: SANGER: Inhibition of human SNU-387 cell growth in a cell viability assay.

[6] = tested on: T84; assay: cells; type: functional, cell-based; conditions: Homo sapiens;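 further: growth inhibition measured with a cell viability readout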
Description: SANGER: Inhibition of human T84 cell growth in a cell viability assay.

[7] = tested on: HOP-92; assay: cells; type: functional, cell-based; conditions: Homo sapiens;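 further: cell viability readout, with IC50 reflecting inhibition of HOP-92 cell growth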
Description: SANGER: Inhibition of human HOP-92 cell growth in a cell viability assay.

[8] = tested on: NCI-H1417; assay: cells; type: functional, cell-based; conditions: Homo sapiens;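 further: human NCI-H1417 cells, growth inhibition determined with a cell viability readout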
Description: SANGER: Inhibition of human NCI-H1417 cell growth in a cell viability assay.

[9] = tested on: MFE-280; assay: cells; type: functional, cell-based; conditions: Homo sapiens;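 further: growth inhibition of MFE-280 cells, determined with a cell viability readout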
Description: SANGER: Inhibition of human MFE-280 cell growth in a cell viability assay.

[10] = tested on: HEC-1; assay: cells; type: functional, cell-based; conditions: Homo sapiens;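 further: growth inhibition of the cell line, read out with a cell viability assay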
Description: SANGER: Inhibition of human HEC-1 cell growth in a cell viability assay.

[11] = tested on: HLE; assay: cells; type: functional, cell-based; conditions: Homo sapiens;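 further: growth inhibition of human HLE cells, read out by a cell viability assay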
Description: SANGER: Inhibition of human HLE cell growth in a cell viability assay.

[12] = tested on: MDA-MB-361; assay: cells; type: functional, cell-based; conditions: Homo sapiens
[13] = tested on: NY; assay: cells; type: functional, cell-based; conditions: Homo sapiens
Description: SANGER: Inhibition of human NY cell growth in a cell viability assay.

[14] = tested on: U2OS; assay: cells; type: functional, cell-based, U-2-OS; conditions: Homo sapiens;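 further: growth inhibition of human U-2-OS cells, determined with a cell viability assay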
Description: SANGER: Inhibition of human U-2-OS cell growth in a cell viability assay.

[15] = tested on: HCC1954; assay: cells; type: functional, cell-based; conditions: Homo sapiens;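 further: growth inhibition of human HCC1954 cells, read out with a cell viability assay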
Description: SANGER: Inhibition of human HCC1954 cell growth in a cell viability assay.

[16] = tested on: SIG-M5; assay: cells; type: functional, cell-based; conditions: Homo sapiens;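 further: cell viability assay read-out, measuring how strongly growth of cultured human SIG-M5 cells is inhibited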
Description: SANGER: Inhibition of human SIG-M5 cell growth in a cell viability assay.

[17] = tested on: NCI-H2171; assay: cells; type: functional, cell-based; conditions: Homo sapiens;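 further: growth inhibition of human NCI-H2171 cells, read out by a cell viability assay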
Description: SANGER: Inhibition of human NCI-H2171 cell growth in a cell viability assay.

[18] = tested on: AU565; assay: cells; type: functional, cell-based; conditions: Homo sapiens;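 further: cell viability assay measuring growth inhibition of human AU565 cells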
Description: SANGER: Inhibition of human AU565 cell growth in a cell viability assay.

[19] = tested on: GMS-10; assay: cells; type: functional, cell-based; conditions: Homo sapiens;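 further: growth inhibition of GMS-10 cells, read out as cell viability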
Description: SANGER: Inhibition of human GMS-10 cell growth in a cell viability assay.

[20] = tested on: KYSE-140; assay: cells; type: functional, cell-based; conditions: Homo sapiens;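 further: cell viability assay measuring growth inhibition in human KYSE-140 cells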
Description: SANGER: Inhibition of human KYSE-140 cell growth in a cell viability assay.

[21] = tested on: U-118-MG; assay: cells; type: functional, cell-based; conditions: Homo sapiens
Description: SANGER: Inhibition of human U-118-MG cell growth in a cell viability assay.

[22] = tested on: NCI-H2170; assay: cells; type: functional, cell-based; conditions: Homo sapiens;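 further: cell viability assay measuring growth inhibition of human NCI-H2170 cancer cells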
Description: SANGER: Inhibition of human NCI-H2170 cell growth in a cell viability assay.

[23] = tested on: CA46; assay: cells; type: functional, cell-based; conditions: Homo sapiens;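 further: growth inhibition of human CA46 cells, read out by a cell viability assay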
Description: SANGER: Inhibition of human CA46 cell growth in a cell viability assay.

[24] = tested on: HCC1395; assay: cells; type: functional, cell-based; conditions: Homo sapiens;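 further: growth inhibition of HCC1395 cells, read out by a cell viability assay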
Description: SANGER: Inhibition of human HCC1395 cell growth in a cell viability assay.

[25] = tested on: CAKI-1; assay: cells; type: functional, cell-based; conditions: Homo sapiens;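 further: growth inhibition of CAKI-1 cells, measured by a cell viability assay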
Description: SANGER: Inhibition of human CAKI-1 cell growth in a cell viability assay.

[26] = tested on: AN3-CA; assay: cells; type: functional, cell-based; conditions: Homo sapiens;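 further: growth inhibition of human AN3-CA cells measured by a cell viability assay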
Description: SANGER: Inhibition of human AN3-CA cell growth in a cell viability assay.

[27] = tested on: HuCCT-1; assay: cells; type: functional, cell-based, HuCCT1; conditions: Homo sapiens;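 further: growth inhibition of HuCCT-1 cells, read out by a cell viability assay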
Description: SANGER: Inhibition of human HuCCT1 cell growth in a cell viability assay.

[28] = tested on: YKG-1; assay: cells; type: functional, cell-based; conditions: Homo sapiens;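 further: cell growth inhibition, read out with a viability assay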
Description: SANGER: Inhibition of human YKG-1 cell growth in a cell viability assay.

[29] = tested on: OPM-2; assay: cells; type: functional, cell-based; conditions: Homo sapiens;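 further: growth of OPM-2 cells measured with a viability assay, IC50 for suppression of proliferation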
Description: SANGER: Inhibition of human OPM-2 cell growth in a cell viability assay.

[30] = tested on: ECC4; assay: cells; type: functional, cell-based; conditions: Homo sapiens;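 further: growth inhibition of ECC4 cells, read out with a cell viability assay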
Description: SANGER: Inhibition of human ECC4 cell growth in a cell viability assay.

[31] = tested on: CESS; assay: SANGER: Inhibition of human CESS cell growth in a cell viability assay.; type: functional, cell-based
[32] = tested on: HSC-2; assay: cells; type: functional, cell-based; conditions: Homo sapiens;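 further: growth inhibition of human HSC-2 cells, read out by a cell viability assay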
Description: SANGER: Inhibition of human HSC-2 cell growth in a cell viability assay.

[33] = tested on: KYSE-180; assay: cells; type: functional, cell-based; conditions: Homo sapiens;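 further: growth inhibition of KYSE-180 cells, read out with a cell viability assay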
Description: SANGER: Inhibition of human KYSE-180 cell growth in a cell viability assay.

[34] = tested on: SK-MES-1; assay: cells; type: functional, cell-based; conditions: Homo sapiens;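 further: growth inhibition of human SK-MES-1 cells, read out with a cell viability assay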
Description: SANGER: Inhibition of human SK-MES-1 cell growth in a cell viability assay.

[35] = tested on: BL-41; assay: cells; type: functional, cell-based; conditions: Homo sapiens;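 further: growth inhibition of human BL-41 cells, read out with a cell viability assay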
Description: SANGER: Inhibition of human BL-41 cell growth in a cell viability assay.

[36] = tested on: NCI-H2405; assay: cells; type: functional, cell-based; conditions: Homo sapiens;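 further: growth inhibition of the human cell line, read out with a cell viability assay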
Description: SANGER: Inhibition of human NCI-H2405 cell growth in a cell viability assay.

[37] = tested on: KYSE-270; assay: cells; type: functional, cell-based; conditions: Homo sapiens;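 further: cell growth inhibition measured with a viability assay in the human KYSE-270 line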
Description: SANGER: Inhibition of human KYSE-270 cell growth in a cell viability assay.

[38] = tested on: MKN-7; assay: cells; type: functional, cell-based; conditions: Homo sapiens;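 further: growth inhibition of MKN-7 cells, read out with a cell viability assay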
Description: SANGER: Inhibition of human MKN7 cell growth in a cell viability assay.

[39] = tested on: SKG-IIIa; assay: cells; type: functional, cell-based; conditions: Homo sapiens;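 further: cell growth inhibition, read out with a cell viability assay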
Description: SANGER: Inhibition of human SKG-IIIa cell growth in a cell viability assay.

[40] = tested on: KP-N-YN; assay: cells; type: functional, cell-based; conditions: Homo sapiens;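 further: growth inhibition of KP-N-YN cells, read out with a cell viability assay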
Description: SANGER: Inhibition of human KP-N-YN cell growth in a cell viability assay.

[41] = tested on: PF-382; assay: cells; type: functional, cell-based; conditions: Homo sapiens
Description: SANGER: Inhibition of human PF-382 cell growth in a cell viability assay.

[42] = tested on: HCC1599; assay: cells; type: functional, cell-based; conditions: Homo sapiens;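 further: growth inhibition of HCC1599 cells, read out in a cell viability assay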
Description: SANGER: Inhibition of human HCC1599 cell growth in a cell viability assay.

[43] = tested on: SK-MEL-28; assay: cells; type: functional, cell-based; conditions: Homo sapiens;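 further: growth inhibition of human SK-MEL-28 cells, read out with a cell viability assay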
Description: SANGER: Inhibition of human SK-MEL-28 cell growth in a cell viability assay.

[44] = tested on: KMS-12-PE; assay: cells; type: functional, cell-based; conditions: Homo sapiens;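 further: growth inhibition of human KMS-12-PE cells, measured with a cell viability assay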
Description: SANGER: Inhibition of human KMS-12-PE cell growth in a cell viability assay.

[45] = tested on: HSC-4; assay: cells; type: functional, cell-based; conditions: Homo sapiens;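 further: growth inhibition of human HSC-4 cells, read out with a cell viability assay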
Description: SANGER: Inhibition of human HSC-4 cell growth in a cell viability assay.

[46] = tested on: NCCIT; assay: SANGER: Inhibition of human NCCIT cell growth in a cell viability assay.; type: functional, cell-based
[47] = tested on: EVSA-T; assay: cells; type: functional, cell-based; conditions: Homo sapiens;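 further: growth inhibition of EVSA-T cells, read out with a cell viability assay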
Description: SANGER: Inhibition of human EVSA-T cell growth in a cell viability assay.

[48] = tested on: NCI-N87; assay: cells; type: functional, cell-based; conditions: Homo sapiens;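 further: growth inhibition of human NCI-N87 cells, read out with a cell viability assay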
Description: SANGER: Inhibition of human NCI-N87 cell growth in a cell viability assay.

[49] = tested on: D-392MG; assay: cells; type: functional, cell-based; conditions: Homo sapiens
[50] = tested on: A-375; assay: cells; type: functional, cell-based; conditions: Homo sapiens;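 further: growth inhibition of A375 cells, read out with a cell viability assay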
Description: SANGER: Inhibition of human A375 cell growth in a cell viability assay.

[51] = tested on: BHY; assay: cells; type: functional, cell-based; conditions: Homo sapiens;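 further: cell growth inhibition read out by a viability assay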
Description: SANGER: Inhibition of human BHY cell growth in a cell viability assay.

[52] = tested on: HT-3; assay: cells; type: functional, cell-based; conditions: Homo sapiens;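 further: growth inhibition measured with a cell viability readout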
Description: SANGER: Inhibition of human HT-3 cell growth in a cell viability assay.

[53] = tested on: SR; assay: cells; type: functional, cell-based; conditions: Homo sapiens
Description: SANGER: Inhibition of human SR cell growth in a cell viability assay.

[54] = tested on: NUGC-3; assay: cells; type: functional, cell-based; conditions: Homo sapiens;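 further: growth inhibition of human NUGC-3 cells, read out with a cell viability assay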
Description: SANGER: Inhibition of human NUGC-3 cell growth in a cell viability assay.

[55] = tested on: C32; assay: cells; type: functional, cell-based; conditions: Homo sapiens;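 further: cell viability assay, with IC50 reflecting inhibition of C32 cell growth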
Description: SANGER: Inhibition of human C32 cell growth in a cell viability assay.

[56] = tested on: OVCAR-8; assay: cells; type: functional, cell-based; conditions: Homo sapiens;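 further: growth inhibition of human OVCAR-8 cells, read out by a cell viability assay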
Description: SANGER: Inhibition of human OVCAR-8 cell growth in a cell viability assay.

[57] = tested on: SCLC-21H; assay: cells; type: functional, cell-based; conditions: Homo sapiens;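 further: growth inhibition of cultured human SCLC-21H cells, read out with a cell viability assay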
Description: SANGER: Inhibition of human SCLC-21H cell growth in a cell viability assay.

[58] = tested on: KOSC-2; assay: cells; type: functional, cell-based; conditions: Homo sapiens
Description: SANGER: Inhibition of human KOSC-2 cell growth in a cell viability assay.

[59] = tested on: LoVo; assay: cells; type: functional, cell-based; conditions: Homo sapiens
Description: SANGER: Inhibition of human LoVo cell growth in a cell viability assay.

[60] = tested on: NCI-H358; assay: cells; type: functional, cell-based; conditions: Homo sapiens
Description: SANGER: Inhibition of human NCI-H358 cell growth in a cell viability assay.

[61] = tested on: NCI-H1793; assay: cells; type: functional, cell-based; conditions: Homo sapiens
Description: SANGER: Inhibition of human NCI-H1793 cell growth in a cell viability assay.

[62] = tested on: MEL-HO; assay: cells; type: functional, cell-based; conditions: Homo sapiens
Description: SANGER: Inhibition of human MEL-HO cell growth in a cell viability assay.

[63] = tested on: TALL-1; assay: cells; type: functional, cell-based; conditions: Homo sapiens
Description: SANGER: Inhibition of human TALL-1 cell growth in a cell viability assay.

[64] = tested on: CAL-27; assay: cells; type: functional, cell-based; conditions: Homo sapiens
Description: SANGER: Inhibition of human CAL-27 cell growth in a cell viability assay.

[65] = tested on: SK-MEL3; assay: cells; type: functional, cell-based, SK-MEL-3; conditions: Homo sapiens
Description: SANGER: Inhibition of human SK-MEL-3 cell growth in a cell viability assay.

## CC(O)(CS(=O)(=O)c1ccc(F)cc1)C(=O)Nc1ccc(C#N)c(C(F)(F)F)c1 (stereo not given) [BICALUTAMIDE]
[1]
  IC50: > 1020 nM
[2]
  IC50: > 1020 nM
[3]
  IC50: > 1020 nM
[4]
  IC50: > 1020 nM
[5]
  IC50: > 1020 nM
[6]
  IC50: > 1020 nM
[7]
  IC50: > 1020 nM
[8]
  IC50: > 1020 nM
[9]
  IC50: > 1020 nM
[10]
  IC50: > 1020 nM
[11]
  IC50: > 1020 nM
[12]
  IC50: > 1020 nM
[13]
  IC50: > 1020 nM
[14]
  IC50: > 1020 nM
[15]
  IC50: > 1020 nM
[16]
  IC50: > 1020 nM
[17]
  IC50: > 1020 nM
[18]
  IC50: > 1020 nM
[19]
  IC50: > 1020 nM
[20]
  IC50: > 1020 nM
[21]
  IC50: > 1020 nM
[22]
  IC50: > 1020 nM
[23]
  IC50: > 1020 nM
[24]
  IC50: > 1020 nM
[25]
  IC50: > 1020 nM
[26]
  IC50: > 1020 nM
[27]
  IC50: > 1020 nM
[28]
  IC50: > 1020 nM
[29]
  IC50: > 1020 nM
[30]
  IC50: > 1020 nM
[31]
  IC50: > 1020 nM
[32]
  IC50: > 1020 nM
[33]
  IC50: > 1020 nM
[34]
  IC50: > 1020 nM
[35]
  IC50: > 1020 nM
[36]
  IC50: > 1020 nM
[37]
  IC50: > 1020 nM
[38]
  IC50: > 1020 nM
[39]
  IC50: > 1020 nM
[40]
  IC50: > 1020 nM
[41]
  IC50: > 1020 nM
[42]
  IC50: > 1020 nM
[43]
  IC50: > 1020 nM
[44]
  IC50: > 1020 nM
[45]
  IC50: > 1020 nM
[46]
  IC50: > 1020 nM
[47]
  IC50: > 1020 nM
[48]
  IC50: > 1020 nM
[49]
  IC50: > 1020 nM
[50]
  IC50: > 1020 nM
[51]
  IC50: > 1020 nM
[52]
  IC50: 731 nM
[53]
  IC50: > 1020 nM
[54]
  IC50: > 1020 nM
[55]
  IC50: > 1020 nM
[56]
  IC50: > 1020 nM
[57]
  IC50: > 1020 nM
[58]
  IC50: > 1020 nM
[59]
  IC50: > 1020 nM
[60]
  IC50: > 1020 nM
[61]
  IC50: > 1020 nM
[62]
  IC50: > 1020 nM
[63]
  IC50: > 1020 nM
[64]
  IC50: > 1020 nM
[65]
  IC50: > 1020 nM

## CCNC(=O)c1noc(-c2cc(C(C)C)c(O)cc2O)c1-c1ccc(CN2CCOCC2)cc1 [LUMINESPIB]
[1]
  IC50: 30.2 nM
[2]
  IC50: 27.1 nM
[3]
  IC50: 41.6 nM
[4]
  IC50: 16.8 nM
[5]
  IC50: 92.2 nM
[6]
  IC50: 13.3 nM
[7]
  IC50: 77.1 nM
[8]
  IC50: 48.9 nM
[9]
  IC50: > 256 nM
[10]
  IC50: 71.6 nM
[11]
  IC50: 60.8 nM
[12]
  IC50: 58.7 nM
[13]
  IC50: 17.4 nM
[14]
  IC50: 39.4 nM
[15]
  IC50: > 256 nM
[16]
  IC50: 4.89 nM
[17]
  IC50: 186 nM
[18]
  IC50: 118 nM
[19]
  IC50: 134 nM
[20]
  IC50: 20.2 nM
[21]
  IC50: 25.8 nM
[22]
  IC50: 163 nM
[23]
  IC50: 54.3 nM
[24]
  IC50: > 256 nM
[25]
  IC50: 251 nM
[26]
  IC50: 10.2 nM
[27]
  IC50: 29.6 nM
[28]
  IC50: 11.6 nM
[29]
  IC50: > 256 nM
[30]
  IC50: 199 nM
[31]
  IC50: 31.2 nM
[32]
  IC50: 5.18 nM
[33]
  IC50: 5.86 nM
[34]
  IC50: 9.45 nM
[35]
  IC50: 56 nM
[36]
  IC50: 28.9 nM
[37]
  IC50: 10.6 nM
[38]
  IC50: > 256 nM
[39]
  IC50: 178 nM
[40]
  IC50: > 256 nM
[41]
  IC50: 48.3 nM
[42]
  IC50: 96 nM
[43]
  IC50: > 256 nM
[44]
  IC50: 129 nM
[45]
  IC50: 172 nM
[46]
  IC50: 66 nM
[47]
  IC50: 92.7 nM
[48]
  IC50: 78 nM
[49]
  IC50: 38.4 nM
[50]
  IC50: 21.7 nM
[51]
  IC50: 19.1 nM
[52]
  IC50: > 256 nM
[53]
  IC50: 27.9 nM
[54]
  IC50: 48.3 nM
[55]
  IC50: > 256 nM
[56]
  IC50: 32.8 nM
[57]
  IC50: > 256 nM
[58]
  IC50: 41.1 nM
[59]
  IC50: 39.3 nM
[60]
  IC50: 42.1 nM
[61]
  IC50: > 256 nM
[62]
  IC50: 16.4 nM
[63]
  IC50: > 256 nM
[64]
  IC50: 81.6 nM
[65]
  IC50: 48 nM
